Assay results taken from ChEMBL document CHEMBL3046235, “In vitro biological activities of new heterocyclic chalcone derivatives” (Med Chem Res, 2013).
≈ marks a conversion by molar mass, not a printed value. Calls of active or inactive are those of the source. The rule behind the calls is not given here.

Assays:
[1] = test system: Goatpox virus; assay: Antiviral activity against Goatpox virus infected African green monkey Vero cells assessed as inhibition of viral replication at MNTC dose incubated for 24 hr measured after 6 days; format: functional
[2] = test system: Escherichia coli; assay: Antimicrobial activity against Escherichia coli isolated from infected patient assessed as diameter of growth inhibition zone at 40 ug/ml by disk diffusion method; format: functional; details: read-out: DIZ
[3] = test system: Camelpox virus; assay: Antiviral activity against Camelpox virus infected African green monkey Vero cells assessed as inhibition of viral replication at MNTC dose incubated for 24 hr measured after 3 days; format: functional
[4] = test system: Radical scavenging activity; assay: Antioxidant activity assessed as DPPH radical scavenging activity at 15 ug/ml after 30 min by spectrophotometric analysis; format: functional
[5] = test system: Staphylococcus aureus; assay: Antimicrobial activity against Staphylococcus aureus isolated from infected patient assessed as diameter of growth inhibition zone at 40 ug/ml by disk diffusion method; format: functional; details: read-out: DIZ
[6] = test system: Buffalopox virus; assay: Antiviral activity against Buffalopox virus virus infected African green monkey Vero cells assessed as inhibition of viral replication at MNTC dose incubated for 24 hr measured after 4 days; format: functional
[7] = test system: Candida albicans; assay: Antimicrobial activity against Candida albicans assessed as diameter of growth inhibition zone at 40 ug/ml by disk diffusion method; format: functional; details: read-out: DIZ
[8] = test system: Salmonella typhi; assay: Antimicrobial activity against Salmonella enterica subsp. enterica serovar Typhi isolated from infected patient assessed as growth inhibition by disk diffusion method; format: functional
[9] = test system: Bacillus subtilis; assay: Antimicrobial activity against Bacillus subtilis isolated from infected patient assessed as growth inhibition by disk diffusion method; format: functional
[10] = test system: Aspergillus niger; assay: Antimicrobial activity against Aspergillus niger assessed as growth inhibition by disk diffusion method; format: functional
[11] = test system: Escherichia coli; assay: Antimicrobial activity against Escherichia coli isolated from infected patient assessed as growth inhibition by disk diffusion method; format: functional
[12] = test system: Candida albicans; assay: Antimicrobial activity against Candida albicans assessed as growth inhibition by disk diffusion method; format: functional
[13] = test system: Vero; assay: Cytotoxicity against Chlorocebus aethiops (African green monkey) Vero cells assessed as change in morphological changes after 4 days by inverted microscopic analysis; format: cell-based; details: chlorocebus sabaeus, 96 h
[14] = test system: Salmonella typhi; assay: Antimicrobial activity against Salmonella enterica subsp. enterica serovar Typhi isolated from infected patient assessed as diameter of growth inhibition zone at 40 ug/ml by disk diffusion method; format: functional; details: read-out: DIZ
[15] = test system: Goatpox virus; assay: Antiviral activity against Goatpox virus infected African green monkey Vero cells assessed as reduction of virus titers at MNTC dose incubated for 24 hr measured after 6 days by TCID50 assay; format: functional, organism-based
[16] = test system: Aspergillus niger; assay: Antimicrobial activity against Aspergillus niger assessed as diameter of growth inhibition zone at 40 ug/ml by disk diffusion method; format: functional; details: read-out: DIZ
[17] = test system: Bacillus subtilis; assay: Antimicrobial activity against Bacillus subtilis isolated from infected patient assessed as diameter of growth inhibition zone at 40 ug/ml by disk diffusion method; format: functional; details: read-out: DIZ
[18] = test system: HepG2; assay: Cytotoxicity against Homo sapiens (human) HepG2 cells assessed as inhibition of cell viability by trypan blue exclusion method; format: functional; details: read-out: LC50 (the source's name)
[19] = test system: Camelpox virus; assay: Antiviral activity against Camelpox virus infected African green monkey Vero cells assessed as reduction of virus titers at MNTC dose incubated for 24 hr measured after 3 days by TCID50 assay; format: functional, organism-based
[20] = test system: Buffalopox virus; assay: Antiviral activity against Buffalopox virus virus infected African green monkey Vero cells assessed as reduction of virus titers at MNTC dose incubated for 24 hr measured after 4 days by TCID50 assay; format: functional, organism-based
[21] = test system: Staphylococcus aureus; assay: Antimicrobial activity against Staphylococcus aureus isolated from infected patient assessed as growth inhibition by disk diffusion method; format: functional
[22] = test system: HepG2; assay: Growth inhibition of Homo sapiens (human) HepG2 cells at 25 to 100 ug/ml after 48 hr by MTT assay; format: functional, cell-based

Cc1cc(C(=O)/C=C/c2c[nH]c3ccccc23)c(C)o1
inhibition (INH) [1]: 0% | zone of inhibition at 40 µg/mL [2]: 21 mm | inhibition (INH) [3]: 0% | Activity [4]: 31% | zone of inhibition at 40 µg/mL [5]: 22 mm | inhibition (INH) [6]: 0% | zone of inhibition at 40 µg/mL [7]: 19 mm | MIC [8]: 30 µg/mL (≈ 113 µM) | MIC [9]: 40 µg/mL (≈ 151 µM) | MIC [10]: 40 µg/mL (≈ 151 µM) | MIC [11]: 40 µg/mL (≈ 151 µM) | MIC [12]: 40 µg/mL (≈ 151 µM) | MNTD [13]: 75 µg | zone of inhibition at 40 µg/mL [14]: 22 mm | inhibition [15]: inactive | zone of inhibition at 40 µg/mL [16]: 11 mm | zone of inhibition at 40 µg/mL [17]: 22 mm | CC50 [18]: 81 µg/mL (≈ 305 µM) | inhibition [19]: inactive | inhibition [20]: inactive | MIC [21]: 20 µg/mL (≈ 75.4 µM)

COc1ccc(/C=C/C(=O)c2cc(C)oc2C)cc1
inhibition (INH) [1]: 0% | zone of inhibition at 40 µg/mL [2]: 21 mm | inhibition (INH) [3]: 0% | Activity [4]: 64.9% | zone of inhibition at 40 µg/mL [5]: 21 mm | inhibition (INH) [6]: 0% | zone of inhibition at 40 µg/mL [7]: 18 mm | MIC [8]: 20 µg/mL (≈ 78 µM) | MIC [9]: 40 µg/mL (≈ 156 µM) | MIC [10]: 30 µg/mL (≈ 117 µM) | MIC [11]: 30 µg/mL (≈ 117 µM) | MIC [12]: 30 µg/mL (≈ 117 µM) | MNTD [13]: 1.3 µg | zone of inhibition at 40 µg/mL [14]: 24 mm | inhibition [15]: inactive | zone of inhibition at 40 µg/mL [16]: 18 mm | zone of inhibition at 40 µg/mL [17]: 23 mm | CC50 [18]: 63 µg/mL (≈ 246 µM) | inhibition [19]: inactive | inhibition [20]: inactive | MIC [21]: 40 µg/mL (≈ 156 µM)

O=C(/C=C/c1ccc[nH]1)c1ccsc1
inhibition (INH) [1]: 0% | zone of inhibition at 40 µg/mL [2]: 24 mm | inhibition (INH) [3]: 0% | Activity [4]: 31% | zone of inhibition at 40 µg/mL [5]: 16 mm | inhibition (INH) [6]: 0% | zone of inhibition at 40 µg/mL [7]: 23 mm | MIC [8]: 40 µg/mL (≈ 197 µM) | MIC [9]: 30 µg/mL (≈ 148 µM) | MIC [10]: 30 µg/mL (≈ 148 µM) | MIC [11]: 40 µg/mL (≈ 197 µM) | MIC [12]: 40 µg/mL (≈ 197 µM) | MNTD [13]: 4.68 µg | zone of inhibition at 40 µg/mL [14]: 23 mm | inhibition [15]: inactive | zone of inhibition at 40 µg/mL [16]: 23 mm | zone of inhibition at 40 µg/mL [17]: 23 mm | CC50 [18]: 21 µg/mL (≈ 103 µM) | inhibition [19]: inactive | inhibition [20]: inactive | MIC [21]: 40 µg/mL (≈ 197 µM)

O=C(/C=C/c1ccc(-c2ccccc2)cc1)c1ccsc1
inhibition (INH) [1]: 0% | zone of inhibition at 40 µg/mL [2]: 22 mm | inhibition (INH) [3]: 0% | Activity [4]: 31% | zone of inhibition at 40 µg/mL [5]: 17 mm | inhibition (INH) [6]: 0% | zone of inhibition at 40 µg/mL [7]: 30 mm | MIC [8]: 30 µg/mL (≈ 103 µM) | MIC [9]: 30 µg/mL (≈ 103 µM) | MIC [10]: 40 µg/mL (≈ 138 µM) | MIC [11]: 30 µg/mL (≈ 103 µM) | growth inhibition (GI) [22]: Active | MIC [12]: 30 µg/mL (≈ 103 µM) | MNTD [13]: 7.8 µg | zone of inhibition at 40 µg/mL [14]: 15 mm | inhibition [15]: inactive | zone of inhibition at 40 µg/mL [16]: 24 mm | zone of inhibition at 40 µg/mL [17]: 18 mm | CC50 [18]: 13 µg/mL (≈ 44.8 µM) | inhibition [19]: inactive | inhibition [20]: inactive | MIC [21]: 30 µg/mL (≈ 103 µM)

CCc1ccc(/C=C/C(=O)c2ccsc2)o1
inhibition (INH) [1]: 0% | zone of inhibition at 40 µg/mL [2]: 25 mm | inhibition (INH) [3]: 0% | Activity [4]: 31% | zone of inhibition at 40 µg/mL [5]: 23 mm | inhibition (INH) [6]: 0% | zone of inhibition at 40 µg/mL [7]: 25 mm | MIC [8]: 20 µg/mL (≈ 86.1 µM) | MIC [9]: 20 µg/mL (≈ 86.1 µM) | MIC [10]: 40 µg/mL (≈ 172 µM) | MIC [11]: 30 µg/mL (≈ 129 µM) | growth inhibition (GI) [22]: Active | MIC [12]: 20 µg/mL (≈ 86.1 µM) | MNTD [13]: 58.3 µg | zone of inhibition at 40 µg/mL [14]: 26 mm | inhibition [15]: inactive | zone of inhibition at 40 µg/mL [16]: 23 mm | zone of inhibition at 40 µg/mL [17]: 25 mm | CC50 [18]: 8 µg/mL (≈ 34.4 µM) | inhibition [19]: inactive | inhibition [20]: inactive | MIC [21]: 20 µg/mL (≈ 86.1 µM)

O=C(O)c1cn(C2CC2)c2cc(N3CCNCC3)c(F)cc2c1=O [CIPROFLOXACIN]
zone of inhibition at 40 µg/mL [5]: 24 mm | zone of inhibition at 40 µg/mL [14]: 23 mm | zone of inhibition at 40 µg/mL [17]: 23 mm

O=C(/C=C/c1c[nH]c2ccccc12)c1ccsc1
inhibition (INH) [1]: 0% | zone of inhibition at 40 µg/mL [2]: 20 mm | inhibition (INH) [3]: 0% | Activity [4]: 31% | zone of inhibition at 40 µg/mL [5]: 19 mm | inhibition (INH) [6]: 0% | zone of inhibition at 40 µg/mL [7]: 28 mm | MIC [8]: 30 µg/mL (≈ 118 µM) | MIC [9]: 40 µg/mL (≈ 158 µM) | MIC [10]: 30 µg/mL (≈ 118 µM) | MIC [11]: 30 µg/mL (≈ 118 µM) | MIC [12]: 30 µg/mL (≈ 118 µM) | MNTD [13]: 1.3 µg | zone of inhibition at 40 µg/mL [14]: 19 mm | inhibition [15]: inactive | zone of inhibition at 40 µg/mL [16]: 24 mm | zone of inhibition at 40 µg/mL [17]: 16 mm | CC50 [18]: 36 µg/mL (≈ 142 µM) | inhibition [19]: inactive | inhibition [20]: inactive | MIC [21]: 30 µg/mL (≈ 118 µM)

CCc1ccc(/C=C/C(=O)c2cc(C)oc2C)o1
inhibition (INH) [1]: 0% | zone of inhibition at 40 µg/mL [2]: 27 mm | inhibition (INH) [3]: 0% | Activity [4]: 31% | zone of inhibition at 40 µg/mL [5]: 18 mm | inhibition (INH) [6]: 0% | zone of inhibition at 40 µg/mL [7]: 21 mm | MIC [8]: 40 µg/mL (≈ 164 µM) | MIC [9]: 30 µg/mL (≈ 123 µM) | MIC [10]: 40 µg/mL (≈ 164 µM) | MIC [11]: 40 µg/mL (≈ 164 µM) | MIC [12]: 40 µg/mL (≈ 164 µM) | MNTD [13]: 2.08 µg | zone of inhibition at 40 µg/mL [14]: 23 mm | inhibition [15]: inactive | zone of inhibition at 40 µg/mL [16]: 22 mm | zone of inhibition at 40 µg/mL [17]: 24 mm | CC50 [18]: 69 µg/mL (≈ 282 µM) | inhibition [19]: inactive | inhibition [20]: inactive | MIC [21]: 40 µg/mL (≈ 164 µM)

OC(Cn1cncn1)(Cn1cncn1)c1ccc(F)cc1F [FLUCONAZOLE]
zone of inhibition at 40 µg/mL [7]: 24 mm | zone of inhibition at 40 µg/mL [16]: 25 mm

Cc1cc(C(=O)/C=C/c2ccc[nH]2)c(C)o1
inhibition (INH) [1]: 0% | zone of inhibition at 40 µg/mL [2]: 18 mm | inhibition (INH) [3]: 0% | Activity [4]: 31% | zone of inhibition at 40 µg/mL [5]: 21 mm | inhibition (INH) [6]: 0% | zone of inhibition at 40 µg/mL [7]: 17 mm | MIC [8]: 40 µg/mL (≈ 186 µM) | MIC [9]: 30 µg/mL (≈ 139 µM) | MIC [10]: 40 µg/mL (≈ 186 µM) | MIC [11]: 40 µg/mL (≈ 186 µM) | MIC [12]: 30 µg/mL (≈ 139 µM) | MNTD [13]: 25 µg | zone of inhibition at 40 µg/mL [14]: 19 mm | inhibition [15]: inactive | zone of inhibition at 40 µg/mL [16]: 21 mm | zone of inhibition at 40 µg/mL [17]: 21 mm | CC50 [18]: 59 µg/mL (≈ 274 µM) | inhibition [19]: inactive | inhibition [20]: inactive | MIC [21]: 30 µg/mL (≈ 139 µM)
